Experimental data from patent publication US8299237B2, “Nucleic acid sequences comprising NF-κB binding site within O(6)-methylguanine-DNA-methyltransferase (MGMT) promoter region and uses thereof for the treatment of cancer and immune-related disorders” (Hadasit Medical Research Services & Development Ltd., priority 2007, dated 2012).

How the values were obtained:
T98MG gliomas cell line = format: cell-based, human; settings: 2.5 mM TMZ without LMODN
Experimental: T98MG glioma cell line cells were treated with increasing doses of the decoy ODN's of the invention. Double stranded ODNs (30mers), corresponding to MGMT-κB1 binding site (as also denoted by SEQ. ID. NO. 1), and control ODNs were purchased from IDT. Each strand of ODN was thirty-mers and contained six LNA nucleotides. The following ODNs were used: MGMT-kB1forward: 5′---+T+AATGGGG+ACTTTAC GGG+[…]+A+T---3′ (as also denoted by SEQ. ID. NO. 40) with or without the 5′ end labeled with carboxyfluorescein-5-succimidyl ester (FAM). The MGMT-kB1 reverse ODN: 5′---+A+TTCTGTA+[…]+[…]+T+A---3′ as also denoted by SEQ ID NO. 41). Control forward: 5′---+T+AG TGT CG+A CTT CAC TCT+ACT TGA CAG A+A+T---3′ (as also denoted by SEQ ID NO. 42), control reverse: 5′---+A+TT CTG TC+A AGT AGA GTG+AAG TCG ACA C+T+A---3′ as also denoted by SEQ ID NO. 43). It should be noted that (+designated as nucleotide containing an LNA modification).
The viability of the cells was tested 24-48 hrs later by CellTiter-Blue assay (Promega®). The assay was carried out according to the supplier's instructions. Briefly, the assay is based on the ability of living cells to convert a redox dye (resazurin) into a fluorescent end product (resorufin). Cell viability estimation is done by measuring the fluorescent intensity of resorufin (ex. 560 nm, em. 590 nm) using a fluorescent microplate reader.
The inventors next tested the potential of the decoy LMODN molecules of the invention to sensitize tumor cells to alkylating agents and thereby improve their efficacy as anti-cancerous treatment. Therefore, several human cancer cell lines were treated with alkylating agents with increasing doses of MGMT-kB1-ODN followed by cell viability tests. First, the sensitivity of each cell line to several alkylating agents, mainly temozolomide (TMZ) and BCNU was calibrated. At 24 hrs following sowing, cells were exposed for two hours to increasing concentrations of the alkylating agent and viability of the cells was tested 24-48 hrs later by CellTiter-Blue assay (Promega®). To test the potential of MGMT-kB1-LMODN to sensitize tumor cells to alkylating agents in-vitro, increasing doses of LMODNs MGMT-kB1 forward and reverse as denoted by SEQ ID NO. 40 and 41, respectively), with or without the 5′ end labeled with carboxyfluorescein-5-succimidyl ester (FAM), as well as the control LMODNs (as denoted by SEQ ID NO. 42 and 43), were liposomally introduced (Lipofectamine 2000, Invitrogen) to various tumor cancer cells. Twenty four hours later, cells were treated with the different doses of alkylating agents as calibrated before.
FIG. 9 represents an example of T98MG gliomas cell line sensitized to alkylating agents in response to treatment with the LMODN's of the invention. […]

NF-κB/p65 = target: T1, NF-κB/p65 (Homo sapiens, UniProt Q04206); experiment: Gel electrophoretic mobility shift assay (EMSA) with HeLa nuclear extracts; format: binding; settings: nuclear extracts from Hela cells exposed to TNFα (200 u/ml)
T1 construct: 10 μg of nuclear extracts with 0.3 ng of ^32P-labeled synthetic double-stranded oligodeoxynucleotides; endogenous in cells; host or cells: HeLa cells treated with TNFα (nuclear extract)
Experimental: Nuclear extracts were prepared from HeLa cells treated with 200 units/ml of TNFα for 15 min. Oligodeoxynucleotides spanning the NF-κB binding site within the MGMT promoter (also denoted by SEQ ID NO. 4 and 5), with or without a C-G mutation (also denoted by SEQ ID NO. 6 and 7) or the consensus NF-κB site from HIV LTR (SEQ ID NO. 3, also shown in FIG. 1B), were end-labeled by a fill-in reaction using the Klenow fragment of DNA polymerase (New England Biolabs, Beverly, Mass.). DNA binding reactions were performed by incubation on ice for 15 min of 10 μg of nuclear extracts with 0.3 ng of ^32P-labeled synthetic double-stranded oligodeoxynucleotides in the presence of 10 mM Hepes, pH 7.9, 10% glycerol, 50 mM KCl, 5 mM MgCl2, 5 mM dithiothreitol, 2 μg of poly (dI·dC), and 0.1% Nonidet P-40. Competitor oligonucleotides were incubated in 100-fold molar excess and preincubated in the reaction mixtures for 10 min before addition of the radiolabeled probe. For supershift experiments, 1 μl of p65 antibody (MAB16200, Chemicon International Inc., Temecula, Calif.) was added during the preincubation period.
To explore whether the NF-κB sites found within the MGMT promoter actually bind NF-κB, the inventors next performed an EMSA analysis of nuclear extracts from HeLa cells treated with TNFα and with labeled DNA fragments spanning the region containing the NF-κB motif. As shown by FIG. 1C, this process generated a nuclear binding factor specific for these regions (FIG. 1C, lanes 5 and 9), of the same size as the complex attached to the consensus HIV-κB site as also denoted by SEQ ID NO. 3 (FIG. 1C, lane 2) as indicated by the black arrows. […] Binding specificity was confirmed by competition with cold HIV-κB oligonucleotide. […] This confirmed that p65 binds to both NF-κB putative sites. The upper band in lane 9 (FIG. 1C) is not the same size as the NF-κB complex attached to the canonical HIV-κB oligonucleotide (FIG. 1C, lane 2). It was neither shifted when incubated with NF-κB/p65 antibodies (lane 10), nor abolished in the presence of unlabeled HIV-κB probe (FIG. 1C, lane 11). Based on the finding that the MGMT-κB2 binding site overlaps the Sp1 site, the inventors speculate that this complex may further contain Sp1. This speculation is also supported by its size, which is the same as that of the complex attached to the Sp1 oligonucleotide (FIG. 1C, lane 1).

[1] = system: MGMT-kB1-Luc reporter construct induced by NF-κB/p65; experiment: Luciferase reporter assay, MGMT-kB1-Luc co-transfected with NF-κB/p65; format: cell-based, human
Experimental: Transient transfections were performed in 6-well plates, using the FuGene6 transfection reagent (Roche Diagnostics GmbH, Mannheim, Germany), according to the manufacturer's instructions. U87MG, T98G, and A172 cells were transfected with pNF-κB-Luc reporter Vector (Clontech, Palo Alto, Calif.), while RG2 and U87MG were transfected with MGMT-Luc [construct p-954/+24 mL [Biswas T. et al. Oncogene 18:525-32 (1999)] kindly provided by Sankar Mitra] (1 μg/well). CMVβ-galactosidase expression vector (CMVβgal-Clonthech) was included (0.1 μg/well) in each transfection to normalize transfection efficiency. HEK293 cells were transfected with CMVβgal alone or along with one or more of the following plasmids: CMVp65, CMVΔNIκB, CMVp50, CMVcJun. CMVp65 and CMVΔNIκB plasmids were kindly provided by Prof. Yinon. Ben-Neriah (The Hebrew University, Jerusalem, Israel), CMVp50 and CMVcJun were kindly provided by Dr. Danielle Melloul (Hadassah Hebrew University Medical Center, Jerusalem, Israel).
At 24 hrs following transfection, the cells were lysed for 15 min on ice with 200 μl of luciferase lysis buffer (Promega, Madison, Wis.). Luciferase assays were carried out using a Promega assay kit and a luminometer (EG&G Berthold, Bad Wildbad, Germany). The activity was normalized to β-galactosidase activity (Promega) and plotted as the mean±s.d. of triplicates from a representative experiment.
For the cloning of the MGMT-luc constructs the reporter vector p-TA-Luc (Clontech, Palo Alto, USA) was used. The plasmid contains TATA box motif upstream to a luciferase reporter gene. A double stranded DNA corresponding to four repeats of each sequence as indicated by FIG. 8A (also denoted by SEQ ID NO. 44, 45, 46 and 47), was synthesis by syntezza LTD and ligated upstream to the TATA box.
To test the activity of these sites, several luciferase reporter genes bearing four copies of either intact or mutant sequence, of each of the two NF-κB sites (NF-κB1 and NF-κB2), were constructed as indicated in Experimental procedures. […] An inhibition of approximately 50% was observed using 100 nM ODN. Negative control using the CMVΔNIκB (ΔN)-Luc construct as well as positive control using the canonical HIV-κB-Luc reporter construct, confirmed validity of the data.
Induction of over expression of NF-κB in HEK 293T cells by transfection of a CMV-NF-κB/p65 generated a 50-fold elevation in luciferase expression driven by the Co-transfected reporter construct MGMT-kB1-Luc. […] Inhibition of approximately 90% was induced by 150 nM LMODN. […] No inhibition was detected when a mutant LMODN was introduced into the cells, indicating the specificity of MGMT-kB1-LMODN (of SEQ ID NO. 40 and 41). […] 3 (HIV-κB-Luc construct).

T1 sequence (Q04206 whole entry): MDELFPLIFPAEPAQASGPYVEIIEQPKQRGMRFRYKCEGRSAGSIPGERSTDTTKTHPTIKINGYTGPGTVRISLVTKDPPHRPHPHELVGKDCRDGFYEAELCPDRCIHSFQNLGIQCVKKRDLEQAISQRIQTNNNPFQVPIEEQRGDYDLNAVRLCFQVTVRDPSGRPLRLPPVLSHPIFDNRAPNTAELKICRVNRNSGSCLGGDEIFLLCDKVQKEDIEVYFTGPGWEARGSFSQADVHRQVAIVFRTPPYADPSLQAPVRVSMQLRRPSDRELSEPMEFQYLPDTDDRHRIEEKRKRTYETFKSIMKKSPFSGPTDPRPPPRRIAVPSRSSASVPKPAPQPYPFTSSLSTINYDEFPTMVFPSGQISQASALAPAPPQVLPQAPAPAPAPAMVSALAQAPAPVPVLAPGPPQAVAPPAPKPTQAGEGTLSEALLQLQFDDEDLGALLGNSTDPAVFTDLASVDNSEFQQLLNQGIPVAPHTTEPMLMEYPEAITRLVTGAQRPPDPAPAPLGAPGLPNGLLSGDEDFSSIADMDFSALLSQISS

Molecule | binding of NF-κB in nuclear extract to 32P-labeled probe (in words) (NF-κB/p65) | other results
Cn1nnc2c(C(N)=O)ncn2c1=O [TMZ, temozolomide] |  | live cells (T98MG gliomas cell line): 60%
HIV-κB: consensus NF-κB site from HIV LTR, control probe (DNA GGCTTCAGAGGGGACTTTCCGAGA; labeled probe, label not given here, further chemistry not given here; listed as Homo sapiens) | formation of complexes of a similar size | 
MGMT-κB1 Mut: MGMT-κB1 oligonucleotide with mutated site (C-to-G substitution) (DNA TGATGGCTTCTGTAAAGTCGGCATCTCCAAATAAGGTCAC; DNA, backbone not given here; further chemistry not fully specified; listed as Homo sapiens) | Specific binding was not observed | 
MGMT-κB2 Mut: MGMT-κB2 oligonucleotide with mutated site (C-to-G substitution) (DNA GGCGGGAACACGGCGCCCCGCCCG; DNA, backbone not given here; further chemistry not fully specified; listed as Homo sapiens) | Specific binding was not observed | 
MGMT-κB2: EMSA oligodeoxynucleotide probe spanning the NF-κB binding site MGMT-κB2 within the MGMT promoter (DNA GGCGGGAACACCCCGCCCCGCCCG; DNA, backbone not given here; further chemistry not fully specified; listed as Homo sapiens) | formation of complexes of a similar size | 
MGMT-κB-1: EMSA oligodeoxynucleotide probe spanning the NF-κB binding site MGMT-κB1 within the MGMT promoter (DNA TGATGGCTTCTGTAAAGTCCCCATCTCCAAATAAGGTCAC; DNA, backbone not given here; further chemistry not fully specified; listed as Homo sapiens) | formation of complexes of a similar size | 
SEQ ID NO. 36 and 37: double stranded LNA modified ODN decoy of MGMT-kB1 site; forward SEQ ID NO. 36, reverse SEQ ID NO. 37 (sense TAAGAGGGACTTTACGGGACTTTACTACAT; antisense ATGTAGTAAGTCCCGTAAAGTCCCTCTTA; LNA modifications, chemistry not fully specified; listed as Homo sapiens) [double stranded LNA modified ODN decoy of MGMT-kB1 site; 37] |  | inhibition of luciferase activity ([1]; 100 nM ODN, HEK293T, MGMT-κB1 reporter construct + NF-κB/p65 (FIG. 7)): approximately 50%; effect on luciferase activity driven by MGMT-kB1 reporter (in words) ([1]; HEK293T co-transfected with MGMT-kB1 reporter and NF-κB/p65): decreased the luciferase activity in a dose-dependent manner
